This is an account of results in ChEMBL document CHEMBL6114991, “Design, synthesis, and biological evaluation of novel quinoline carboxylic acid based styryl/alkyne hybrid molecule as a potent anti-adipogenic and antidyslipidemic agent via activation of Wnt/β-catenin pathway” (Eur J Med Chem, 2025).

For series [1], the system named is 3T3-L1. Nature of the series: Anti-adipogenic activity in mouse 3T3-L1 cells at 20 uM relative to control. Type of series: functional.
Series [2] has as its system 3T3-L1. Kind of series: Cytotoxicity against mouse 3T3-L1 cells assessed as cell viability at 20 uM incubated for 48 hrs by MTT assay. Type of series: toxicity, cell-based. Conditions: 3t3-l1, 48 h. In general terms: Formazan colour is commonly taken as a measure of viable cells.
Series [3] concerns 3T3-L1. Nature of the series: Cytotoxicity against mouse 3T3-L1 cells assessed as cell viability at 30 uM incubated for 48 hrs by MTT assay. Type of series: toxicity, cell-based. Conditions: 3t3-l1, 48 h.
For series [4], the system named is 3T3-L1. Kind of series: Anti-adipogenic activity in MDI-induced mouse 3T3-L1 cells assessed as suppression of adipogenesis at 0.3 uM by oil red O staining based analysis. The format is functional, cell-based. The note with it: time 72.0 hrs.
The test system of series [5] is 3T3-L1. Kind of series: Anti-adipogenic activity in mouse 3T3-L1 cells assessed as suppression of adipogenesis at 20 uM measured for 72 hrs by oil red O staining based analysis. Type of series: functional.
Series [6] has as its system 3T3-L1. Kind of series: Anti-adipogenic activity in mouse 3T3-L1 cells assessed as suppression of adipogenesis at 30 uM measured for 72 hrs by oil red O staining based analysis. The format is functional, cell-based.
Series [7] concerns 3T3-L1. Nature of the series: Anti-adipogenic activity in mouse 3T3-L1 cells assessed as reduction in lipid accumulation at 10 uM by microscopic analysis. The format is functional, cell-based.

Active and inactive are the calls of the source. No cut-off for these calls is given here.

Consider `COC(=O)c1cc(-c2ccc(/C=C/c3ccc(C)cc3)cc2)nc2ccc(F)cc12`, for which, in the series with 3T3-L1 [1] (time 72.0 hrs), the result was inactive. The Activity entry in the series on 3T3-L1 [2] was “Toxic”.

In the case of `O=C(O)c1cc(-c2ccc(/C=C/c3ccccn3)cc2)nc2ccccc12`, the outcome in the series with 3T3-L1 [1] (time 72.0 hrs) was inactive.

With `O=C(O)c1cc(-c2ccc(/C=C/c3ccc4ccccc4c3)cc2)nc2ccccc12`, the result in the series with 3T3-L1 [1] (time 72.0 hrs) was inactive.

As to `O=C(O)c1ccc(/C=C/c2ccc(-c3cc(C(=O)O)c4ccccc4n3)cc2)cc1`, the result with 3T3-L1 [1] (time 72.0 hrs) was inactive. In the series with 3T3-L1 [2], the Activity entry is “Toxic”.

`CCCCCOC(=O)c1cc(-c2ccc(/C=C/c3ccc(C)cc3)cc2)nc2ccc(F)cc12`: the outcome in the series on 3T3-L1 [1] (time 72.0 hrs) was inactive. The Activity result in the series with 3T3-L1 [2] is given as “Toxic”.

As for `O=C(O)c1cc(-c2ccc(/C=C/c3ccncc3)cc2)nc2ccccc12`, in the series on 3T3-L1 [3], the Activity entry is “Toxic”. Moreover, in the series with 3T3-L1 [1] (time 72.0 hrs), the result was inactive. The result in the series with 3T3-L1 [4] was Active.

As for `Cc1cccc(C#Cc2ccc(-c3cc(C(=O)O)c4ccccc4n3)cc2)c1`, the Activity in the series with 3T3-L1 [1] (time 72 hrs) is reported as 68%; in the series with 3T3-L1 [2] it was “Toxic”.

`CC(C)(C)c1ccc(/C=C/c2ccc(-c3cc(C(=O)O)c4ccccc4n3)cc2)cc1`: the Activity with 3T3-L1 [5] is recorded as 70%; in the series on 3T3-L1 [1] (time 72 hrs), 67%; in the series with 3T3-L1 [2], “Non-toxic”.

Take `CCCCCCOC(=O)c1cc(-c2ccc(/C=C/c3ccc(C)cc3)cc2)nc2ccc(F)cc12`: the outcome in the series on 3T3-L1 [1] (time 72.0 hrs) was inactive. The Activity entry with 3T3-L1 [2] was “Toxic”.

With `Cc1ccc(/C=C/c2ccc(-c3cc(C(=O)O)c4cc(C)cc(Cl)c4n3)cc2)cc1`, the outcome with 3T3-L1 [1] (time 72.0 hrs) was inactive.

Consider `Cc1ccc(/C=C/c2ccc(-c3cc(C(=O)O)c4cc(C)ccc4n3)cc2)cc1`, for which the outcome with 3T3-L1 [1] (time 72.0 hrs) was inactive.

As to `Cc1ccc(C#Cc2ccc(-c3cc(C(=O)O)c4ccccc4n3)cc2)cc1`, the Activity with 3T3-L1 [1] (time 72 hrs) worked out at 74%.

In the case of `CCOC(=O)c1cc(-c2ccc(/C=C/c3ccc(C)cc3)cc2)nc2ccc(F)cc12`, the result with 3T3-L1 [1] (time 72.0 hrs) was inactive. Further, in the series on 3T3-L1 [2], the Activity entry is “Toxic”.

For the molecule `CCCCOC(=O)c1cc(-c2ccc(/C=C/c3ccc(C)cc3)cc2)nc2ccc(F)cc12`, the result in the series on 3T3-L1 [1] (time 72.0 hrs) was inactive. Also, the Activity result in the series on 3T3-L1 [2] is “Toxic”.

As to `CCCOC(=O)c1cc(-c2ccc(/C=C/c3ccc(C)cc3)cc2)nc2ccc(F)cc12`, the result with 3T3-L1 [1] (time 72.0 hrs) was inactive. The Activity entry in the series on 3T3-L1 [2] is listed as “Toxic”.

On to `CCCCCCCCOC(=O)c1cc(-c2ccc(/C=C/c3ccc(C)cc3)cc2)nc2ccc(F)cc12`, for which, in the series on 3T3-L1 [1] (time 72.0 hrs), the outcome was inactive. In addition, the Activity result in the series with 3T3-L1 [2] is given as “Toxic”.

For the molecule `CC(C)(C)c1ccc(C#Cc2ccc(-c3cc(C(=O)O)c4ccccc4n3)cc2)cc1`, the Activity in the series on 3T3-L1 [5] is recorded as 70%; in the series on 3T3-L1 [3], “Toxic”; in the series on 3T3-L1 [1] (time 72 hrs), 69%; in the series with 3T3-L1 [2], “Non-toxic”. In addition, in the series with 3T3-L1 [4], the result was Active.

As for `Cc1ccc(/C=C/c2ccc(-c3cc(C(=O)OC(C)C)c4cc(F)ccc4n3)cc2)cc1`, in the series on 3T3-L1 [1] (time 72.0 hrs), the result was inactive. Further, the Activity entry in the series on 3T3-L1 [2] is “Toxic”.

As for `Cc1ccc(/C=C/c2ccc(-c3cc(C(=O)O)c4cccc(Cl)c4n3)cc2)cc1`, the outcome with 3T3-L1 [1] (time 72.0 hrs) was inactive.

For `Cc1ccc(/C=C/c2ccc(-c3cc(C(=O)O)c4ccccc4n3)cc2)cc1`, the Activity in the series on 3T3-L1 [5] is 70%; in the series with 3T3-L1 [3], “Toxic”; with 3T3-L1 [1] (time 72 hrs), 68%; in the series with 3T3-L1 [2] it was “Non-toxic”. The outcome in the series on 3T3-L1 [4] was inactive. Also, the outcome in the series on 3T3-L1 [6] was Active.

With `Cc1ccc(/C=C/c2ccc(-c3cc(C(=O)O)c4cc(OC(F)(F)F)ccc4n3)cc2)cc1`, in the series with 3T3-L1 [1] (time 72.0 hrs), the result was inactive.

Take `O=C(O)c1cc(-c2ccc(/C=C/c3ccc(Cl)cc3)cc2)nc2ccccc12`: the result in the series with 3T3-L1 [1] (time 72.0 hrs) was inactive.

Regarding `Cc1cc([N+](=O)[O-])ccc1NS(=O)(=O)c1cc(Cl)ccc1Cl`, the outcome in the series with 3T3-L1 [7] was Active.

Take `O=C(O)c1cc(-c2ccc(C#Cc3ccccc3)cc2)nc2ccccc12`: the result in the series with 3T3-L1 [1] (time 72.0 hrs) was inactive.

Consider `COc1ccc(C#Cc2ccc(-c3cc(C(=O)O)c4ccccc4n3)cc2)cc1`, for which the values for the Activity in the series on 3T3-L1 [1] (time 72 hrs) and with 3T3-L1 [2] were 69% and “Toxic”, respectively.

Regarding `O=C(O)c1cc(-c2ccc(/C=C/c3ccccc3)cc2)nc2ccccc12`, in the series with 3T3-L1 [1] (time 72.0 hrs), the outcome was inactive.

On to `Cc1ccc(/C=C/c2ccc(-c3cc(C(=O)O)c4cc(Cl)ccc4n3)cc2)cc1`, for which the Activity is 76% with 3T3-L1 [1] (time 72 hrs) and “Toxic” with 3T3-L1 [2].

As for `COc1ccc2nc(-c3ccc(/C=C/c4ccc(C)cc4)cc3)cc(C(=O)O)c2c1`, the Activity in the series on 3T3-L1 [5] is listed as 70%; in the series on 3T3-L1 [2], “Non-toxic”. The result in the series on 3T3-L1 [1] (time 72.0 hrs) was inactive.

Consider `O=C(O)c1cc(-c2ccc(C#Cc3ccc(F)cc3)cc2)nc2ccccc12`, for which the result with 3T3-L1 [1] (time 72.0 hrs) was inactive. Further, the Activity result in the series with 3T3-L1 [2] is given as “Toxic”.
